In PubChem BioAssay AID1963843 (Molecular Pharmacology Branch, DTP, NCI, 2024):

System: 616215-338-R-J1-PDC complex spheroid viability
Test: Anticancer human tumor 616215-338-R-J1-PDC patient-derived colon adenocarcinoma cell line growth inhibition [POLQ]
Details: for IC50: curve of first compound; for viability, T/C: stronger effect = lower value
Method in brief: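 Patient-derived tumour cells were co-cultured with HUVEC and mesenchymal stem cells as multicellular spheroids at 37 °C. They were treated with POLQ inhibitors (novobiocin, ART-558, RP6685) alone or combined with other agents. Top concentrations were at or near clinical Cmax (otherwise 10 microM; SN-38 at 1 microM), decreasing in half-log steps.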

[1] = second compound 0.0316 µM, first compound 0.0316 µM
[2] = second compound 0.0316 µM, first compound 0.1 µM
[3] = second compound 0.0316 µM, first compound 0.316 µM
[4] = second compound 0.0316 µM, first compound 1 µM
[5] = second compound 0.0316 µM, first compound 3.16 µM
[6] = second compound 0.0316 µM, first compound 10 µM
[7] = second compound 0.1 µM, first compound 0.0316 µM
[8] = second compound 0.1 µM, first compound 0.1 µM
[9] = second compound 0.1 µM, first compound 0.316 µM
[10] = second compound 0.1 µM, first compound 1 µM
[11] = second compound 0.1 µM, first compound 3.16 µM
[12] = second compound 0.1 µM, first compound 10 µM
[13] = second compound 0.316 µM, first compound 0.0316 µM
[14] = second compound 0.316 µM, first compound 0.1 µM
[15] = second compound 0.316 µM, first compound 0.316 µM
[16] = second compound 0.316 µM, first compound 1 µM
[17] = second compound 0.316 µM, first compound 3.16 µM
[18] = second compound 0.316 µM, first compound 10 µM
[19] = second compound 1 µM, first compound 0.0316 µM
[20] = second compound 1 µM, first compound 0.1 µM
[21] = second compound 1 µM, first compound 0.316 µM
[22] = second compound 1 µM, first compound 1 µM
[23] = second compound 1 µM, first compound 3.16 µM
[24] = second compound 1 µM, first compound 10 µM
[25] = second compound 3.16 µM, first compound 0.0316 µM
[26] = second compound 3.16 µM, first compound 0.1 µM
[27] = second compound 3.16 µM, first compound 0.316 µM
[28] = second compound 3.16 µM, first compound 1 µM
[29] = second compound 3.16 µM, first compound 3.16 µM
[30] = second compound 3.16 µM, first compound 10 µM
[31] = second compound 10 µM, first compound 0.0316 µM
[32] = second compound 10 µM, first compound 0.1 µM
[33] = second compound 10 µM, first compound 0.316 µM
[34] = second compound 10 µM, first compound 1 µM
[35] = second compound 10 µM, first compound 3.16 µM
[36] = second compound 10 µM, first compound 10 µM
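Also: spheroids exposed to compounds for one week before readout.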
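For viability, T/C in this document: percent viability relative to DMSO vehicle wells taken as 100%.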

With `Nc1ccn(C2OC(CO)C(O)C2(F)F)c(=O)n1` (stereo unspecified) + COC1C(OC(N)=O)C(O)C(Oc2ccc3c(O)c(NC(=O)c4ccc(O)c(CC=C(C)C)c4)c(=O)oc3c2C)OC1(C)C the IC50 (second compound 0.0316 µM) was under 31.6 nM, the IC50 (second compound 0.1 µM) was 65.7 nM and the IC50 (second compound 0.316 µM) was 65.7 nM. It also gave an IC50 (second compound 1 µM) of 61.7 nM, an IC50 (second compound 3.16 µM) of 57.9 nM and an IC50 (second compound 10 µM) of 59.6 nM. For the same compound, the viability, T/C [1] was 49.3%, the viability, T/C [2] was 32.9% and the viability, T/C [3] was 24%. The viability, T/C [4] was 35%, the viability, T/C [5] was 34% and the viability, T/C [6] was 30%. For the same compound, the viability, T/C [7] was 62.5%, the viability, T/C [8] was 42.8% and the viability, T/C [9] was 28.5%. It also gave a viability, T/C [10] of 29.1%, a viability, T/C [11] of 30.1% and a viability, T/C [12] of 35.3%. For the same compound, the viability, T/C [13] was 56.9%, the viability, T/C [14] was 46% and the viability, T/C [15] was 26.4%. It also gave a viability, T/C [16] of 27.7%, a viability, T/C [17] of 32.1% and a viability, T/C [18] of 32.9%. The viability, T/C [19] was 60.1%, the viability, T/C [20] was 42.7% and the viability, T/C [21] was 24.4%. It also gave a viability, T/C [22] of 23.2%, a viability, T/C [23] of 32.6% and a viability, T/C [24] of 29.3%. It also gave a viability, T/C [25] of 64.8%, a viability, T/C [26] of 39.5% and a viability, T/C [27] of 23.1%. The viability, T/C [28] was 27.8%, the viability, T/C [29] was 30.6% and the viability, T/C [30] was 30%. For the same compound, the viability, T/C [31] was 69.3%, the viability, T/C [32] was 34.6% and the viability, T/C [33] was 28.5%. It also gave a viability, T/C [34] of 28.1%, a viability, T/C [35] of 28.4% and a viability, T/C [36] of 36.5%.

In the case of `CC1COCCN1c1cc(C2(O)CC3CCC(C2)O3)c2cnn(-c3ccn[nH]3)c2n1` (stereo unspecified) + COC1C(OC(N)=O)C(O)C(Oc2ccc3c(O)c(NC(=O)c4ccc(O)c(CC=C(C)C)c4)c(=O)oc3c2C)OC1(C)C, the IC50 (second compound 0.0316 µM) is reported as 1990 nM, the IC50 (second compound 0.1 µM) is reported as 2050 nM and the IC50 (second compound 0.316 µM) is reported as 1830 nM. It also gave an IC50 (second compound 1 µM) of 2040 nM, an IC50 (second compound 3.16 µM) of 1290 nM and an IC50 (second compound 10 µM) of 960 nM. The viability, T/C [1] was 109%, the viability, T/C [2] was 91.5% and the viability, T/C [3] was 71%. It also gave a viability, T/C [4] of 64.1%, a viability, T/C [5] of 39.5% and a viability, T/C [6] of 35.6%. For the same compound, the viability, T/C [7] was 102%, the viability, T/C [8] was 91.4% and the viability, T/C [9] was 72%. It also gave a viability, T/C [10] of 57.6%, a viability, T/C [11] of 46.7% and a viability, T/C [12] of 36.5%. The viability, T/C [13] was 106%, the viability, T/C [14] was 90.2% and the viability, T/C [15] was 69.4%. For the same compound, the viability, T/C [16] was 60.1%, the viability, T/C [17] was 42.7% and the viability, T/C [18] was 30.5%. The viability, T/C [19] was 105%, the viability, T/C [20] was 90.6% and the viability, T/C [21] was 74.3%. The viability, T/C [22] was 57.1%, the viability, T/C [23] was 47.8% and the viability, T/C [24] was 28%. The viability, T/C [25] was 99.4%, the viability, T/C [26] was 86.8% and the viability, T/C [27] was 64.5%. The viability, T/C [28] was 50.3%, the viability, T/C [29] was 46.2% and the viability, T/C [30] was 21.6%. It also gave a viability, T/C [31] of 100%, a viability, T/C [32] of 79.3% and a viability, T/C [33] of 57.4%. The viability, T/C [34] was 53.2%, the viability, T/C [35] was 40.5% and the viability, T/C [36] was 25.2%.

With `Nc1ccn(C2OC(CO)C(O)C2(F)F)c(=O)n1` (stereo unspecified) + Nc1ccc(C#CCN(C(=O)Cc2ncc(C(F)(F)F)cc2C(F)(F)F)c2ccc(F)cc2)nn1 the IC50 (second compound 0.0316 µM) was under 31.6 nM, the IC50 (second compound 0.1 µM) was under 31.6 nM and the IC50 (second compound 0.316 µM) was under 31.6 nM. For the same compound, the IC50 (second compound 1 µM) was under 31.6 nM, the IC50 (second compound 3.16 µM) was under 31.6 nM and the IC50 (second compound 10 µM) was under 31.6 nM. The viability, T/C [1] was 22.1%, the viability, T/C [2] was 17.1% and the viability, T/C [3] was 10.8%. For the same compound, the viability, T/C [4] was 10.9%, the viability, T/C [5] was 14.9% and the viability, T/C [6] was 16.1%. It also gave a viability, T/C [7] of 27.7%, a viability, T/C [8] of 15.5% and a viability, T/C [9] of 12.6%. It also gave a viability, T/C [10] of 12.6%, a viability, T/C [11] of 12.6% and a viability, T/C [12] of 12.6%. The viability, T/C [13] was 28.6%, the viability, T/C [14] was 24.1% and the viability, T/C [15] was 10.9%. The viability, T/C [16] was 13.3%, the viability, T/C [17] was 12.6% and the viability, T/C [18] was 13.8%. The viability, T/C [19] was 22.7%, the viability, T/C [20] was 15.2% and the viability, T/C [21] was 11.2%. The viability, T/C [22] was 12.6%, the viability, T/C [23] was 13.1% and the viability, T/C [24] was 13.3%. It also gave a viability, T/C [25] of 23.6%, a viability, T/C [26] of 19.6% and a viability, T/C [27] of 12%. It also gave a viability, T/C [28] of 10.3%, a viability, T/C [29] of 13.6% and a viability, T/C [30] of 13.9%. It also gave a viability, T/C [31] of 26.8%, a viability, T/C [32] of 20.3% and a viability, T/C [33] of 12.2%. The viability, T/C [34] was 12.6%, the viability, T/C [35] was 11.3% and the viability, T/C [36] was 12.2%.
